Laboratory results as given in US12496298B2, “Natural killer cells” (Imperial College Innovations Limited, priority 2017, dated 2025).

How the values were obtained:
Human CD34+ cells = test: Toxicity to human CD34+ cells in NK cell culture; format: cell-based
Source text: The hypothesis that SR8278 increases NK cells production would not have any potential therapeutic value if it was not also true for human NK cell production. Therefore, the effect of SR8278 on human NK cell production from human HPCs was examined. Human HPCs were obtained as the CD34^+ population purified from umbilical cord blood from collaborators at the Anthony Nolan Research Institute, London. Human NK cell development goes through a similar developmental pathway to mouse NK cell development. […]
CD34^+ umbilical cord blood progenitor cells were provided by Anthony Nolan Research Institute, University College London. […] Cells were thawed, counted and then plated on EL08.1D2 plates prepared previously at a concentration of 1000 cells/well in human NK cells differentiation medium (Alpha-MEM plus 20% Human AB serum (Invitrogen), 50 μM β-Mercaptoethanol and 1% P/S along with 5 ng/ml human-IL-3 (Peprotech), 20 ng/ml human-IL-7 (Peprotech), 10 ng/ml human-Flt3-L (Peprotech), 20 ng/ml human-SCF (Peprotech) and 10 ng/ml human-IL-15 (Peprotech). Note that human-IL-3 is only needed for the first week of culture. Cells were left in the culture at 37° C., 5% CO2 for 14 or 16 days with a change of human NK differentiation medium at day 7 and 12.

[1] = system: mouse NK cell (NK1.1+CD3−) production from HPCs; test: In vitro development of NK cells from mouse HPCs (NK cell development assay, flow cytometry at Day 9); format: cell-based; conditions: for increase in NK cell production, rank among 2, 5, 10 and 20 μM: confirmation experiments (FIG. 4)
Source text: FIG. 2: Timeline of NK cell development assay. HPCs were isolated and cultured plus FIt3L, IL-7 and SCF cytokines. At Day 2, they were then transferred onto OP9 stromal cells plus or minus drug in culture medium plus the IL-15 cytokine. The media of the cultures were changed at Day 5 and the cells were harvested and analysed at Day 9.
Lineage negative cells are enriched for Hematopoietic Progenitor Cells (HPCs). […] Cells were harvested on Day 9 and analysed using flow cytometry to determine the number of NK1.1^+CD3^− cells (FIG. 2). NK1.1^+ and CD3^− are two cell surface markers that can define mouse NK cells. OP9 stromal cells were readily excluded from the analysis, as the OP9 stromal cells used were GFP positive (FIG. 3B). Flow cytometry data were analysed as the fold increase, relative to the ‘No drug’ or untreated control in each experiment. This is because the absolute percentage of NK cell production varies between experiments.
Lineage negative HSCs were purified from mouse bone marrow by crushing the leg bones in Phosphate-buffered Saline (PBS) with 2% fetal calf serum (FCS) (STEMCELL Technologies), topped up to 40 ml with magnetic-activated cell sorting (MACS) buffer (PBS, 2 mM EDTA, 0.5% BSA, sterile and filtered) and centrifuged at 800 g for 2 minutes. The cells were resuspended in PE-conjugated cocktail, (20 μl of anti-B220 (RA3-6B2), anti-mouse CD2 (RM2-5, anti-Ter119 (TER119) and anti-NK.1.1 (PK136) and 5 μl of anti-CD11b (M1/70) and anti-GR-1 (RB6-8C5) antibodies (all from Bioscience)) incubated for 5 minutes at 4° C., centrifuged and resuspended in anti-PE microbeads for 15 minutes at 4° C. Cells were washed in MACS buffer and passed through MACS columns. This allowed negative selection of HPCs. Following lineage depletion, 50 μl of the cells was analysed using flow cytometry to check for purity.
The HPCs were plated and cultured in 24-well plates at a concentration of 5×10^5 HPCs/well in 1 ml of complete cytokine medium (Dulbecco's modified eagle medium (DMEM) (Sigma Aldrich), 10% FCS, 50 μM β-Mercaptoethanol, 10 ng/ml Flt3-ligand (FIt3L) (R&D Systems), 10 ng/ml IL-7 (R&D Systems), 100 ng/ml stem cell factor (SCF) (R&D Systems) and 1% P/S) for 2 days at 37° C., 5% CO2. The HPCs were then transferred onto OP9 cells at 4500 cells/well for 96-well plate experiments and 3×10^4 cells/well for 24-well plate experiments in mouse NK cells differentiation medium (Alpha-MEM (Sigma Aldrich) plus 20% FCS, 1% P/S and 30 ng/ml IL-15). Cells were left in culture at 37° C., 5% CO2 for 7 days with a change of mouse NK cells differentiation medium at day 3 or 4.
Cells to be analysed by flow cytometry were passed through 40 μm cell strainers to remove clumps and washed with PBS buffer, centrifuged at 800 g for 2 minutes and resuspended in 100 μl fluorescent activated cell sorting (FACS) buffer (PBS plus 1% BSA) with appropriate fluorochrome conjugated antibodies at a dilution of 1 in 300. Cells were stained with the following antibodies, all of which were anti-mouse and are from eBioscience unless specified: 2B4 (clone m2B4(B6) 458.1; BioLegend), CD2 (RM2-5), CD3 (17A2), CD11b (M1/70), CD19 (1D3), CD27 (LG.7F9), CD122 (TM-b1), CD127 (A7R34), B220 (RA3-6B2), ckit (ACK2), Flt3 (A2F10), Gr1 (RB6-8C5), NK1.1 (PK136), Sca1 (D7), Ter119 (TER119), NKp46 (29A1.4) anti-human CD45 (HI30), anti-human CD2 (RPA-2.10) and anti-human CD56 (CMSSB). The lineage cocktail contained B220, CD2, CD11b, Gr1, NK1.1, and Ter119. Cells were stained in the dark at 4° C. for 30 minutes and then washed with 2 ml FACS buffer, centrifuged and resuspend in 300 μl FACS buffer plus Propidium Iodide (PI) also at a dilution of 1 in 300. Flow cytometry was performed using LSRFortessa™ cell analyser (Becton Dickinson Bioscience), sorted using FACSAria (Becton Dickinson) as indicated and full data analysis was done using FlowJo Software.

## CCOC(=O)C1Cc2ccccc2CN1C(=O)c1ccc(SC)s1 (stereo not shown) [SR8278, 1,2,3,4-Tetrahydro-2-[[5-(methylthio)-2-thienyl]carbonyl]-3-isoquinolinecarboxylic acid ethyl ester]
Human CD34+ cells; 5 μM
  toxicity to human CD34+ cells: not toxic
Human CD34+ cells; 10 μM
  toxicity to human CD34+ cells: completely toxic
[1]; 5 μM added at Day 0 (greatest effect)
  NK cell production relative to 'No drug' control: over 1.4 fold
[1]; 5 μM
  increase in NK cell production, rank among 2, 5, 10 and 20 μM: followed by 5 μM
[1]; 10 μM added Day 2, analysed Day 9, screen (FIG. 3)
  NK cell production increase compared to 'No drug' control: over 2.4 fold
[1]; 10 μM added on Days 0, 1 and 2
  increase in NK cell production relative to 'No drug' control: over 1.6 fold
[1]; 10 μM
  increase in NK cell production, rank among 2, 5, 10 and 20 μM: highest increase in NK cell production
[1]; 20 μM added Day 2, analysed Day 9
  number of NK cells detected: reduction in the number of NK cells detected
[1]; 5 or 10 μM added after Day 2
  NK cell production relative to 'No drug' control: no significant difference
[1]; summary in Discussion, concentration not given
  production of NK cells in NK cell production assays increases: more than 2 fold
